For 1 compound, mortality results are on record in patent US8729083B2, “Pyrazole compounds for controlling invertebrate pests” (BASF SE, priority 2008, dated 2014).

Common to all, as to assay type: in vivo
Experiment [1] has as its system Anthonomus grandis. The experiment can be described thus: Boll weevil (Anthonomus grandis), eggs on insect diet in microtiter plates. Particulars: 120 h, test solution 2500 mg/L, 20 μl sprayed onto diet, 5 days, read-out: mortality (egg and larval). As to the method: II.6 Boll Weevil (Anthonomus grandis)
The compounds were formulated in 75:25 (vol:vol) water:DMSO.
For evaluating control of boll weevil (Anthonomus grandis) the test unit consisted of 24-well-microtiter plates containing an insect diet and 20-30 A. grandis eggs. Different concentrations of formulated compounds were sprayed onto the insect diet at 20 μl, using a custom built micro atomizer, at two replications. After application, the microtiter plates were incubated at 23±1° C. and 50±5% relative humidity for 5 days. Egg and larval mortality was then visually assessed.

The subject of experiment [2] is Dichromothrips Corbetti. The experiment can be described thus: Vanda/orchid thrips (Dichromothrips corbetti), dipped orchid petals. As to conditions: after 72 hours, read-out: mortality in comparison with untreated controls. As to the method: II.11 Activity Against Vanda/Orchid Thrips (Dichromothrips Corbetti)
The active compounds were formulated as a 50:50 (vol:vol) acetone:water solution. Surfactant (Alkamuls EL 620) was added at the rate of 0.1% (vol/vol). Vanda orchids petals were cleaned, washed and air dried prior to spraying. Petals were dipped into the test solution for 3 seconds, air dried, placed inside a resealable plastic and inoculated with 20 adults. The treated petals were kept inside the holding room at 28-29° C. and relative humidity of 50-60%. Percent mortality was recorded after 72 hours.

The test system of experiment [3] is Myzus persicae. The experiment can be described thus: Green peach aphid (Myzus persicae, mixed life stages), method b: electrostatic spray on bell pepper. Particulars: 120 h, sprayed, after 5 days, read-out: mortality in comparison with untreated controls. As to the method: II.2 Green Peach Aphid (Myzus persicae, Mixed Life Stages)
(§1) The active compounds were formulated in cyclohexanone as a 10,0000 ppm solution supplied in 1.3 ml ABgene® tubes. These tubes were inserted into an automated electrostatic sprayer equipped with an atomizing nozzle and they served as stock solutions for which lower dilutions were made in 50% acetone:50% water (v/v). A nonionic surfactant (Kinetic®) was included in the solution at a volume of 0.01% (v/v).
Bell pepper plants at the first true-leaf stage were infested prior to treatment by placing heavily infested leaves from the main colony on top of the treatment plants. Aphids were allowed to transfer overnight to accomplish an infestation of 30-50 aphids per plant and the host leaves were removed. The infested plants were then sprayed by an automated electrostatic plant sprayer equipped with an atomizing spray nozzle. The plants were dried in the sprayer fume hood, removed, and then maintained in a growth room under fluorescent lighting in a 24-hr photoperiod at 25° C. and 20-40% relative humidity. Aphid mortality on the treated plants, relative to mortality on untreated control plants, was determined after 5 days.

Experiment [4] relates to Megoura viciae. Kind of experiment: Vetch aphid (Megoura viciae), bean leaf disks in microtiterplates. Particulars: foliar, 144 h, test solution 2500 mg/L, leaf disks sprayed with 2.5 μl, 6 days. As to the method:
II.5 Vetch Aphid (Megoura viciae)
The active compounds were formulated in 1:3 (vol:vol) DMSO:water with different concentrations of formulated compounds.
Bean leaf disks were placed into microtiterplates filled with 0.8% agar-agar and 2.5 ppm OPUS™. The leaf disks were sprayed with 2.5 μl of the test solution and 5 to 8 adult aphids were placed into the microtiterplates which were then closed and kept at 23±1° C. and 50±5% relative humidity under fluorescent light for 6 days. Mortality was assessed on the basis of vital, reproduced aphids. Aphid mortality and fecundity was then visually assessed.

Experiment [5] concerns Aphis gossypii. The experiment can be described thus: Cotton aphid (Aphis gossypii, mixed life stages), method b: electrostatic spray. Particulars: 120 h, sprayed, after 5 days, read-out: mortality in comparison with untreated controls. On the procedure: II.1 Cotton Aphid (Aphis gossypii, Mixed Life Stages)
as §1
Cotton plants at the cotyledon stage were infested with aphids prior to treatment by placing a heavily infested leaf from the main aphid colony on top of each cotyledon. Aphids were allowed to transfer overnight to accomplish an infestation of 80-100 aphids per plant and the host leaf was removed. The infested plants were then sprayed by an automated electrostatic plant sprayer equipped with an atomizing spray nozzle. The plants were dried in the sprayer fume hood, removed from the sprayer, and then maintained in a growth room under fluorescent lighting in a 24 hr photoperiod at 25° C. and 20-40% relative humidity. Aphid mortality on the treated plants, relative to mortality on untreated control plants, was determined after 5 days.

The test system of experiment [6] is Myzus persicae. Kind of experiment: Green peach aphid (Myzus persicae) through systemic means, artificial diet under membrane. Particulars: 72 h, pipetted into aphid diet, 3 days, read-out: mortality in comparison with untreated controls. The source says: II.9 Activity Against Green Peach Aphid (Myzus persicae)
For evaluating control of green peach aphid (Myzus persicae) through systemic means the test unit consisted of 96-well-microtiter plates containing liquid artificial diet under an artificial membrane.
The compounds were formulated using a solution containing 75% v/v water and 25% v/v DMSO. Different concentrations of formulated compounds were pipetted into the aphid diet, using a custom built pipetter, at two replications. After application, 5 to 8 adult aphids were placed on the artificial membrane inside the microtiter plate wells The aphids were then allowed to suck on the treated aphid diet and incubated at about 23+1° C. and about 50+5% relative humidity for 3 days. Aphid mortality and fecundity was then visually assessed.

In experiment [7] the test system is Aphis craccivora. Kind of experiment: Cowpea aphid (Aphis craccivora), spray on potted cowpea plants. As to conditions: sprayed, population reduction assessed after 24, 72 and 120 hours, read-out: mortality in comparison with untreated controls. On the procedure:
II.3 Cowpea Aphid (Aphis craccivora)
The active compounds were formulated in 50:50 (vol:vol) acetone:water. The test solution was prepared at the day of use.
Potted cowpea plants colonized with 100-150 aphids of various stages were sprayed after the pest population had been recorded. Population reduction was assesed after 24, 72, and 120 hours.

In the case of `Cc1c(C(=O)Nc2ccnnc2)cnn1CC(F)(F)F` [Compound 1, 5-Methyl-1-(2,2,2-trifluoroethyl)-1H-pyrazole-4-carboxylic acid pyridazin-4-ylamide], the mortality at 2500 µg/mL in experiment [1] is at least 50%; in experiment [4] it was at least 90%. Besides, in experiment [2], the mortality at 500 ppm was at least 50%. The mortality at 300 ppm was at least 75% in experiment [3], at least 75% in experiment [5] and at least 90% in experiment [7]. In addition, the mortality at 2500 ppm in experiment [6] is 100%.
